From patent US20230080144A1, “REAL-TIME FLUORESCENCE IMAGING SENSOR FOR MEASURING GLUTATHIONE IN ENDOPLASMIC RETICULUM AND METHOD USING SAME” (CELL2IN, INC., priority 2019, published 2023) come the findings set out here.

The structures appear in SMILES notation.

The data set concerns UC-MSCs. As to the kind of experiment: Cytotoxicity test (EZ-cytox). It counts as cell-based. To be noted: for IC50: 24 hours treatment at 5, 10, 20 and 40 μM, absorbance at 450 nm. On the procedure:
(1) UC-MSCs (4×10^3 cells/well) were cultured in 96-well dishes for 24 hours. (2) The cells were treated with […] of each of ER-FT derivative compounds (Formulas IV to VII) at concentrations of 5, 10, 20 and 40 μM and then incubated at 37° C. for 24 hours. (3) 10 μl of 10× EZ-cytox was added to each well, followed by incubation for 3 hours. (4) The absorbance at 450 nm was measured using a plate reader (reference wavelength: 600 to 650 nm).

In turn, `N#CC(=Cc1cc2cc3c4c(c2oc1=O)CCCN4CCC3)C(=O)N1CCC(C(=O)NCCNC(=O)c2c(F)c(F)c(F)c(F)c2F)CC1` [Formula VI] had an IC50 of 33.4 µM.

`Cc1ccc(S(=O)(=O)NCCNC(=O)C2CCN(C(=O)C(C#N)=Cc3cc4cc5c6c(c4oc3=O)CCCN6CCC5)CC2)cc1` [Formula IV] showed an IC50 of 43.4 µM. Besides, the “toxicity (comparison among Formulas IV to VII)” value (24 hours) is listed as “lowest toxicity”. Compound `N#CC(=Cc1cc2cc3c4c(c2oc1=O)CCCN4CCC3)C(=O)N1CCC(C(=O)NCCCOCCOCCOCCCNC(=O)c2c(F)c(F)c(F)c(F)c2F)CC1` [Formula VII] showed an IC50 of 13.3 µM. On the same count and under the same terms, for `Cc1ccc(S(=O)(=O)NCCCOCCOCCOCCCNC(=O)C2CCN(C(=O)C(C#N)=Cc3cc4cc5c6c(c4oc3=O)CCCN6CCC5)CC2)cc1` [Formula V] the value was 36.4 µM.
